Source: patent US20050165011A1, “Benzoxazine and benzoxazinone substituted triazoles” (priority 2002, published 2005)

Tested on: not given
Assay: not given
Conditions: not given

| Compound | melting point [°C] |
| --- | --- |
| Cc1cccc(-c2[nH]nnc2-c2ccc3c(c2)NC(=O)CO3)n1 | 224 |
| Cc1cccc(-c2[nH]nnc2-c2ccc3c(c2)N(CCN2CCOCC2)C(=O)CO3)n1 | 150 |
| O=C1COc2ccc(-c3nn[nH]c3-c3ccccn3)cc2N1 | 256 |
| O=C1COc2ccc(-c3nn[nH]c3-c3cccc(Cl)c3)cc2N1 | 220 |
| CCN1C(=O)COc2ccc(-c3nn[nH]c3-c3cccc(C)n3)cc21 | 187 |

Tested on: TGF-β signaling (PAl-1 promoter luciferase reporter, HepG2 cells)
Assay: Cellular transcriptional assay (PAI-1 promoter luciferase reporter in HepG2 cells exposed to TGF-β)
Assay type: cell-based
Conditions: 500 μM CPO in the presence of TGF-β; toxicity control
Procedure: Assay 1 (Cellular Transcriptional Assay)
The assay was performed in HepG2 cells stably transfected with the PAl-1 promoter (known to be a strong TGF-β responsive promoter) linked to a luciferase (firefly) reporter gene. The compounds were selected on their ability to inhibit luciferase activity in cells exposed to TGF-β. In addition, cells were transfected with a second luciferase (Renilla) gene which was not driven by a TGF-β responsive promoter and was used as a toxicity control.
96 well microplates were seeded, using a multidrop apparatus, with the stably transfected cell line at a concentration of 35000 cells per well in 200 μl of serum-containing medium. These plates were placed in a cell incubator.
18 to 24 hours later (Day 2), cell-incubation procedure was launched. […] Each well contained only one candidate compound and its effect on the PAl-1 promoter was monitored.
Columns 11 and 12 were employed as controls. […] Column 11 was used to determine the ‘reference TGF-β induced firefly luciferase value’ against which values measured in the test wells (to quantify inhibitory activity) were compared. […]
12 to 18 hours later (day 3), the luciferase quantification procedure was launched. […] Following agitation (15 to 30 mins), luciferase activities of the plates were read in a dual-injector luminometer (BMG lumistar). […]

| Compound | firefly and renilla luciferase activities relative to TGF-β only wells |
| --- | --- |
| O=C1C=CCC1 [CPO, Cyclopentenone] | around 50% |
